Data taken from ChEMBL document CHEMBL3507680, “University of Dundee, Gates Library screen for HepG2 cell viability”.

Test: Human HepG2 cell viability assay in 384 well format
Type: toxicity, cell-based
Set-up: dose 125 nL, time 70.5 hour; cytotoxicity at 70.5 h: concentration not given beside the values
Conditions: HepG2 cells, read-out: Inhibition

Row | SMILES | cytotoxicity at 70.5 h [%]
1 | N#Cc1c(-c2ccccc2)csc1N | -22.3
2 | COCC(=O)N1C[C@@H]2COC[C@]2(COC)C1 | -9.06
3 | COC[C@]12COC[C@H]1CN(C(=O)C1CC(F)(F)C1)C2 | -8.18
4 | CCOCc1cnc2n1CCN(C(=O)Cc1cccs1)C2C (configuration not stated) | -7.5
5 | COC1COC2(CCN(C(=O)c3cnc(C)cn3)CC2)C1 (configuration not stated) | -6.81
6 | CCOc1cc(=O)n2c(c1C(=O)OCc1ccc(F)cc1)CCCC2 | -8.82
7 | O=C(NC1CCCC1)N1CCCCC1c1nc(C2CC2)no1 (configuration not stated) | -15.1
8 | O=C(NCc1ccco1)N1CCCCC1c1nc(C2CC2)no1 (configuration not stated) | -7.19
9 | Nc1nc(N2CCCCC2)ncc1C(=O)NCc1ccc(F)c(Cl)c1 | -20
10 | CC1CCCN(c2ncc(C(=O)NCc3ccc(F)c(Cl)c3)c(N)n2)C1 (configuration not stated) | 19.8
11 | CC(C)NC(=O)C1CCN(c2nc3nc[nH]c(=O)c3s2)CC1 | -21.7
12 | O=C(C1CCN(c2nc3nc[nH]c(=O)c3s2)CC1)N1CCCCC1 | -15.6
13 | O=C(NC1CC1)C1CCN(c2nc3nc[nH]c(=O)c3s2)CC1 | -20.8
14 | CCNC(=O)c1cc(OC)c2cc(F)cc(C)c2n1 | -12.9
15 | COc1ccc(-c2c(C)nn3c(=N)c(C#N)n[nH]c23)cc1 | -12.3
16 | Cc1cc(=O)[nH]c(=O)n1COCCOCc1ccccc1 | 25.1
17 | Cn1cnnc1SCc1cc2c(cc1Cl)OCO2 | -20.6
18 | CN(C)CCCNC(=O)c1ccccc1NC(=O)c1cc(Cl)ccc1Cl | -13.9
19 | COc1ccc(OC)c(NC(=O)CSc2ccc3nncn3n2)c1 | -8.56
20 | Cc1n[nH]/c(=N\C(=O)c2c3c(nc4onc(C)c24)CCC3)s1 | -13.7
21 | O=C(CCn1ccc2cc(Br)ccc21)/N=c1\[nH]nc(C2CCCO2)s1 (configuration not stated) | -12

Row | SMILES | cytotoxicity at 70.5 h [%]
22 | COc1ccc(-c2cc(=O)n3c(n2)CCCCC3)cc1 | -10.4
23 | CN(C)c1ccc(-c2cc(=O)n3c(n2)CCCCC3)cc1 | -11
24 | CCOc1ccc(-c2cc(=O)n3c(n2)CCCCC3)cc1 | -5.56
25 | COc1ccc(NC(=O)CSc2nncn2-n2cccc2)c(OC)c1 | -14.5
26 | CCOc1cccc(CNc2ccccc2C(F)(F)F)c1O | 13.7
27 | CCOc1cccc(CNc2ccccc2Cl)c1O | -4.02
28 | Cc1c(C)n(Cc2ccncc2)c2nc3c(c(N)c12)CCCC3 | -7.64
29 | O=C(O)C1CCN(C(=O)CCn2ccc3cc(Br)ccc32)CC1 | -15.9
30 | NC(=O)C1CCN(C(=O)Cn2ccc3cc(Br)ccc32)CC1 | -9.96
31 | CN(C(=O)Cn1nc(-c2ccccc2)ccc1=O)C1CCS(=O)(=O)C1 (configuration not stated) | -12.1
32 | O=C(NCCCN1CCOCC1)c1nc(-c2ccc3cc[nH]c3c2)no1 | -16.3
33 | O=C(NCCCN1CCCC1=O)c1nc(-c2ccc3cc[nH]c3c2)no1 | -22.5
34 | Cc1c(C)n(Cc2ccncc2)c2nc3c(c(N)c12)CCCCCC3 | 30.2
35 | O=c1ccc(-c2cccs2)nn1CN1CCN(C2CCS(=O)(=O)C2)CC1 (configuration not stated) | -10.9
36 | O=c1ccc(-c2cccs2)nn1CN1CCOCC1 | -16.7
37 | CC(C)c1nnc2ccc(N3CCCC(C(=O)Nc4nccs4)C3)nn12 (configuration not stated) | -25.2
38 | COc1cccc(N2Cc3nc(=O)n(C(C)C)n3C2=O)c1 | -13.3
39 | CC(C)c1nnc2ccc(N3CCC(C(=O)NC4CC4)CC3)nn12 | -25
40 | Cc1oc(-c2nc(C#N)c(N(C)C)o2)cc1S(=O)(=O)N1CCCCCC1 | 12.8
41 | Cc1ccc(-c2csc(N)c2C#N)c(C)c1 | -15.8
42 | O=c1[nH]c2c(c(=O)n1C1CCCCC1)CCC2NCc1ccccc1 (configuration not stated) | -30.1

Row | SMILES | cytotoxicity at 70.5 h [%]
43 | O=c1[nH]c2c(c(=O)n1C1CCCCC1)CCC2Nc1ccccn1 (configuration not stated) | 20.1
44 | O=c1[nH]c2c(c(=O)n1C1CCCCC1)CCC2Nc1ccc(Cl)cc1 (configuration not stated) | -12.5
45 | COc1ccc(NC2CCc3c2[nH]c(=O)n(C2CCCCC2)c3=O)cc1 (configuration not stated) | -28.5
46 | O=C1C(CS(=O)(=O)Nc2ccc(Br)cc2)=NC(=O)n2cccc21 | 2.35
47 | Cc1nn(C)c(=O)c2nn(-c3ccc(F)cc3)c(C)c12 | -8.42
48 | Cc1cc(SCC(N)=O)nc(-c2cccc(F)c2)n1 | -11.7
49 | O=C(c1cnc2ccc(F)cc2c1NCc1ccco1)N1CCCCC1 | -9.21
50 | Cc1ccc(Cn2c(=O)[nH]c3csnc3c2=O)cc1 | -13.9
51 | O=C(c1cnc2ccc(F)cc2c1NCc1ccccn1)N1CCCC1 | -17.9
52 | CCCN(CCC)c1ncc(S(=O)(=O)c2cccc(C)c2)c(N)n1 | -20.1
53 | Cc1c(C(=O)O)cnn1-c1ccc(-c2nc(C(C)C)no2)cn1 | -15.1
54 | CCCc1noc(-c2ccc(-n3ncc(C(=O)O)c3C)nc2)n1 | 23.5
55 | Cc1noc(-c2ccc(-n3ncc(C(=O)O)c3C)nc2)n1 | -5.29
56 | Cc1cccc(-c2cc(C(=O)O)sn2)c1 | -14.1
57 | Cc1c(C(=O)N2CCN(C)CC2)n(C)c2ccc(Cl)cc12 | -11.7
58 | CCc1c(C)n(C)c2nc3ccccc3n2c1=O | 8.75
59 | CCc1c(C)n(CC(=O)OC)c2nc3ccccc3n2c1=O | -14.1
60 | CC1(C)CC(=O)c2cnc3nc(N4CCCC4)[nH]c(=O)c3c2C1 | -10.4
61 | CC1CCN(c2nc3ncc4c(c3c(=O)[nH]2)CC(C)(C)CC4=O)CC1 | -4.25
62 | O=C(NCCSCc1ccco1)c1ccc(N2CCOCC2)cc1 | -12.3
63 | COc1ccc(-n2nc(C(C)=O)c(C(C)=O)c2C)cc1Cl | 17.1

Row | SMILES | cytotoxicity at 70.5 h [%]
64 | Cc1nn(C)c(=O)c2nn(-c3cccc(Cl)c3)c(C)c12 | -14.1
65 | Cc1nn(C)c(=O)c2nn(-c3ccc(Cl)cc3)c(C)c12 | -1.68
66 | CC(=O)c1nn(-c2ccccc2)c(C)c1C(C)=O | -8.03
67 | COc1ccc(-c2nnsc2C(=O)N2CCSCC2)cc1 | -8.21
68 | COc1ccc(-c2nnsc2C(=O)N2CCC(C(N)=O)CC2)cc1 | -13.8
69 | Cc1cs/c(=N\C(=O)Cn2nc(N3CCSCC3)ccc2=O)[nH]1 | -13.2
70 | Cc1cs/c(=N\C(=O)Cn2nc(N3CCOCC3)ccc2=O)[nH]1 | -13.8
71 | Cc1cn([C@@H]2CC3(CCNCC3)OC[C@@]2(C)O)c(=O)[nH]c1=O | 0.487
72 | Cc1ccc(C)c(CSc2nnc(C(N)C(C)C)o2)c1 (configuration not stated) | -9.25
73 | COc1ccc(CNCC(C)Oc2ccccn2)cc1 (configuration not stated) | -18.6
74 | CC(CNCc1ccc(F)cc1)Oc1ccccn1 (configuration not stated) | -17.7
75 | Cc1c(C(=O)N2CCOCC2)n(C)c2ccc(Cl)cc12 | -10.5
76 | O=C(Cc1cccs1)N1CCC2(CC1)COCCN2CC1CC1 | -8.87
77 | COCC(=O)N1CCC2(CCN(Cc3ccc(C)cc3)CC2)CC1 | -11.5
78 | O=S(=O)(C1CC1)N1CC[C@@H]2[C@@H]1CCN2Cc1cccs1 | -6.17
79 | c1cc(CNCC2Cn3nncc3CO2)co1 (configuration not stated) | -6.75
80 | CCOCc1cnc2n1CCN(Cc1cccs1)C2C (configuration not stated) | -8.03
81 | COc1cc(N2CCc3ncnc(-c4ccncc4)c3CC2)ncn1 | -6.14
82 | C[C@@H]1CN(C2CCOC2)C[C@]12CCN(c1cccnc1)C2=O (some centres not stated) | -9.89
